Measurements taken from article PMC8371902, “Phase 1 study of M2698, a p70S6K/AKT dual inhibitor, in patients with advanced cancer” (Journal of Hematology & Oncology, 2021).

System: advanced metastatic cancer
Assay: Antitumor activity: tumor response (RECIST 1.1) and progression-free survival
Assay type: in vivo, human
Description: Tumor response was assessed using RECIST 1.1. As for drugs with cytostatic antitumor activity, disease control rate was defined as the sum of stable disease (SD) and objective response rates; SD was considered clinically beneficial. Progression-free survival (PFS) was measured from treatment initiation until disease progression or death and was estimated using the Kaplan–Meier method.

[1] = All patients, M2698 monotherapy 15 mg, N=3
[2] = All patients, M2698 monotherapy 30 mg, N=3
[3] = All patients, M2698 monotherapy 60 mg, N=6
[4] = All patients, M2698 monotherapy 75 mg, N=4
[5] = All patients, M2698 monotherapy 110 mg, N=4
[6] = All patients, M2698 monotherapy 160 mg, N=6
[7] = All patients, M2698 monotherapy 200 mg, N=3
[8] = All patients, M2698 monotherapy 240 mg, N=17
[9] = All patients, M2698 monotherapy 320 mg, N=12
[10] = All patients, M2698 monotherapy 380 mg, N=4
[11] = All patients, M2698 monotherapy, Total of all dose levels, N=62
[12] = PAM+ patients with confounding markers, M2698 monotherapy 15 mg, N=1
[13] = PAM+ patients with confounding markers, M2698 monotherapy 60 mg, N=2
[14] = PAM+ patients with confounding markers, M2698 monotherapy 75 mg, N=1
[15] = PAM+ patients with confounding markers, M2698 monotherapy 110 mg, N=1
[16] = PAM+ patients with confounding markers, M2698 monotherapy 160 mg, N=2
[17] = PAM+ patients with confounding markers, M2698 monotherapy, Total of all dose levels, N=7
[18] = PAM+ patients without confounding markers, M2698 monotherapy 15 mg, N=2
[19] = PAM+ patients without confounding markers, M2698 monotherapy 30 mg, N=2
[20] = PAM+ patients without confounding markers, M2698 monotherapy 60 mg, N=2
[21] = PAM+ patients without confounding markers, M2698 monotherapy 75 mg, N=1
[22] = PAM+ patients without confounding markers, M2698 monotherapy 110 mg, N=2
[23] = PAM+ patients without confounding markers, M2698 monotherapy 160 mg, N=4
[24] = PAM+ patients without confounding markers, M2698 monotherapy 200 mg, N=3
[25] = PAM+ patients without confounding markers, M2698 monotherapy 240 mg, N=16
[26] = PAM+ patients without confounding markers, M2698 monotherapy 320 mg, N=11
[27] = PAM+ patients without confounding markers, M2698 monotherapy 380 mg, N=4
[28] = PAM+ patients without confounding markers, M2698 monotherapy, Total of all dose levels, N=47
[29] = PAM+ patients, M2698 monotherapy 15 mg, N=3
[30] = PAM+ patients, M2698 monotherapy 30 mg, N=2
[31] = PAM+ patients, M2698 monotherapy 60 mg, N=4
[32] = PAM+ patients, M2698 monotherapy 75 mg, N=2
[33] = PAM+ patients, M2698 monotherapy 110 mg, N=3
[34] = PAM+ patients, M2698 monotherapy 160 mg, N=6
[35] = PAM+ patients, M2698 monotherapy 200 mg, N=3
[36] = PAM+ patients, M2698 monotherapy 240 mg, N=16
[37] = PAM+ patients, M2698 monotherapy 320 mg, N=11
[38] = PAM+ patients, M2698 monotherapy 380 mg, N=4
[39] = PAM+ patients, M2698 monotherapy, Total of all dose levels, N=54
[40] = monotherapy, PAM+ with confounding alterations, 1/7

Structure (SMILES): NC(=O)c1cccc2c(N[C@H](CN3CCC3)c3ccc(Cl)c(C(F)(F)F)c3)ncnc12 [M2698]
- Patients with stable disease (54 PAM+ patients, monotherapy): 40.7%
- Median PFS [1]: 4.1 months
- Response, NE [1]: 0 (0.0) n (%)
- Response, PD [1]: 1 (33.3) n (%)
- Response, SD at wk 6 [1]: 2 (66.7) n (%)
- Median PFS [2]: 4.1 months
- Response, NE [2]: 0 (0.0) n (%)
- Response, PD [2]: 0 (0.0) n (%)
- Response, SD at wk 6 [2]: 3 (100) n (%)
- Median PFS [3]: 1.4 months
- Response, NE [3]: 1 (16.7) n (%)
- Response, PD [3]: 4 (66.7) n (%)
- Response, SD at wk 6 [3]: 1 (16.7) n (%)
- Median PFS [4]: 1.4 months
- Response, NE [4]: 0 (0.0) n (%)
- Response, PD [4]: 3 (75.0) n (%)
- Response, SD at wk 6 [4]: 1 (25.0) n (%)
- Median PFS [5]: 1.3 months
- Response, NE [5]: 1 (25.0) n (%)
- Response, PD [5]: 2 (50.0) n (%)
- Response, SD at wk 6 [5]: 1 (25.0) n (%)
- Median PFS [6]: 1.6 months
- Response, NE [6]: 0 (0.0) n (%)
- Response, PD [6]: 4 (66.7) n (%)
- Response, SD at wk 6 [6]: 2 (33.3) n (%)
- Median PFS [7]: 4.1 months
- Response, NE [7]: 0 (0.0) n (%)
- Response, PD [7]: 1 (33.3) n (%)
- Response, SD at wk 6 [7]: 2 (66.7) n (%)
- Median PFS [8]: 2.0 months
- Response, NE [8]: 3 (17.6) n (%)
- Response, PD [8]: 8 (47.1) n (%)
- Response, SD at wk 6 [8]: 6 (35.3) n (%)
- Median PFS [9]: 2.8 months
- Response, NE [9]: 2 (16.7) n (%)
- Response, PD [9]: 5 (41.7) n (%)
- Response, SD at wk 6 [9]: 5 (41.7) n (%)
- Median PFS [10]: 6.2 months
- Response, NE [10]: 2 (50.0) n (%)
- Response, PD [10]: 0 (0.0) n (%)
- Response, SD at wk 6 [10]: 2 (50.0) n (%)
- Median PFS [11]: 2.3 months
- Response, NE [11]: 9 (14.5) n (%)
- Response, PD [11]: 28 (45.2) n (%)
- Response, SD at wk 6 [11]: 25 (40.3) n (%)
- Response, NE [12]: 0 (0.0) n (%)
- Response, PD [12]: 0 (0.0) n (%)
- Median PFS [13]: 1.4 months
- Response, NE [13]: 1 (50.0) n (%)
- Response, PD [13]: 1 (50.0) n (%)
- Median PFS [14]: 1.4 months
- Response, NE [14]: 0 (0.0) n (%)
- Response, PD [14]: 1 (100) n (%)
- Median PFS [15]: 1.3 months
- Response, NE [15]: 0 (0.0) n (%)
- Response, PD [15]: 1 (100) n (%)
- Median PFS [16]: 1.4 months
- Response, NE [16]: 0 (0.0) n (%)
- Response, PD [16]: 2(100.0) n (%)
- Median PFS [17]: 1.4 months
- Response, NE [17]: 1 (14.3) n (%)
- Response, PD [17]: 5 (71.4) n (%)
- Median PFS [18]: 4.1 months
- Response, NE [18]: 0 (0.0) n (%)
- Response, PD [18]: 1 (50.0) n (%)
- Response, SD at wk 6 [18]: 1 (50.0) n (%)
- Median PFS [19]: 10.3 months
- Response, NE [19]: 0 (0.0) n (%)
- Response, PD [19]: 0 (0.0) n (%)
- Response, SD at wk 6 [19]: 2 (100.0) n (%)
- Median PFS [20]: 1.4 months
- Response, NE [20]: 0 (0.0) n (%)
- Response, PD [20]: 2(100.0) n (%)
- Response, SD at wk 6 [20]: 0 (0.0) n (%)
- Median PFS [21]: 2.8 months
- Response, NE [21]: 0 (0.0) n (%)
- Response, PD [21]: 0 (0.0) n (%)
- Response, SD at wk 6 [21]: 1(100.0) n (%)
- Median PFS [22]: 15.1 months
- Response, NE [22]: 1 (50.0) n (%)
- Response, PD [22]: 0 (0.0) n (%)
- Response, SD at wk 6 [22]: 1 (50.0) n (%)
- Response, NE [23]: 0 (0.0) n (%)
- Response, PD [23]: 2 (50.0) n (%)
- Response, SD at wk 6 [23]: 2 (50.0) n (%)
- Median PFS [24]: 4.1 months
- Response, NE [24]: 0 (0.0) n (%)
- Response, PD [24]: 1 (33.3) n (%)
- Response, SD at wk 6 [24]: 2 (66.7) n (%)
- Median PFS [25]: 1.9 months
- Response, NE [25]: 3 (18.8) n (%)
- Response, PD [25]: 8 (50.0) n (%)
- Response, SD at wk 6 [25]: 5 (31.3) n (%)
- Median PFS [26]: 2.8 months
- Response, NE [26]: 1 (9.1) n (%)
- Response, PD [26]: 5 (45.5) n (%)
- Response, SD at wk 6 [26]: 5 (45.5) n (%)
- Median PFS [27]: 6.2 months
- Response, NE [27]: 2 (50.0) n (%)
- Response, PD [27]: 0 (0.0) n (%)
- Response, SD at wk 6 [27]: 2 (50.0) n (%)
- Median PFS [28]: 2.8 months
- Response, NE [28]: 7 (14.9) n (%)
- Response, PD [28]: 19 (40.4) n (%)
- Response, SD at wk 6 [28]: 21 (44.7) n (%)
- Clinical benefit rate (PAM+ patients, monotherapy): 40.7%
- Median PFS [29]: 4.1 months
- Response, NE [29]: 0 (0.0) n (%)
- Response, PD [29]: 1 (33.3) n (%)
- Response, SD at wk 6 [29]: 2 (66.7) n (%)
- Median PFS [30]: 10.3 months
- Response, NE [30]: 0 (0.0) n (%)
- Response, PD [30]: 0 (0.0) n (%)
- Response, SD at wk 6 [30]: 2 (100) n (%)
- Median PFS [31]: 1.4 months
- Response, NE [31]: 1 (25.0) n (%)
- Response, PD [31]: 3 (75.0) n (%)
- Response, SD at wk 6 [31]: 0 (0.0) n (%)
- Median PFS [32]: 2.1 months
- Response, NE [32]: 0 (0.0) n (%)
- Response, PD [32]: 1 (50.0) n (%)
- Response, SD at wk 6 [32]: 1 (50.0) n (%)
- Median PFS [33]: 8.2 months
- Response, NE [33]: 1 (33.3) 1 (33.3) 1 (33.3) n (%)
- Response, PD [33]: 1 (33.3) 1 (33.3) 1 (33.3) n (%)
- Response, SD at wk 6 [33]: 1 (33.3) 1 (33.3) 1 (33.3) n (%)
- Median PFS [34]: 1.6 months
- Response, NE [34]: 0 (0.0) n (%)
- Response, PD [34]: 4 (66.7) n (%)
- Response, SD at wk 6 [34]: 2 (33.3) n (%)
- Median PFS [35]: 4.1 months
- Response, NE [35]: 0 (0.0) n (%)
- Response, PD [35]: 1 (33.3) n (%)
- Response, SD at wk 6 [35]: 2 (66.7) n (%)
- Median PFS [36]: 1.9 months
- Response, NE [36]: 3 (18.8) n (%)
- Response, PD [36]: 8 (50.0) n (%)
- Response, SD at wk 6 [36]: 5 (31.3) n (%)
- Median PFS [37]: 2.8 months
- Response, NE [37]: 1 (9.1) n (%)
- Response, PD [37]: 5 (45.5) n (%)
- Response, SD at wk 6 [37]: 5 (45.5) n (%)
- Median PFS [38]: 6.2 months
- Response, NE [38]: 2 (50.0) n (%)
- Response, PD [38]: 0 (0.0) n (%)
- Response, SD at wk 6 [38]: 2 (50.0) n (%)
- Median PFS [39]: 2.4 months
- Response, NE [39]: 8 (14.8) n (%)
- Response, PD [39]: 24 (44.4) n (%)
- Response, SD at wk 6 [39]: 22 (40.7) n (%)
- Overall clinical benefit rate at 12 weeks (in vivo): 27.4%
- Patients with stable disease at 12 weeks (monotherapy cohort): 27.4%
- Patients with stable disease (monotherapy cohort overall): 40.3%
- Objective response (monotherapy cohort, RECIST 1.1): no objective responses were noted
- Median PFS (monotherapy overall): 2.3 months
- Median PFS (monotherapy, PAM+ patients): 2.4 months
- Stable disease at 6 weeks [40]: 14.3%
- Stable disease at 12 weeks [40]: 14.3%
- Stable disease at 12 weeks (monotherapy, PAM+ without confounding alterations, 14/47): 29.8%
- Stable disease at 6 weeks (monotherapy, PAM+ without confounding alterations, 21/47): 44.7%
- PFS of the five patients with PFS ≥ 6 months (monotherapy, all PAM+ without confounding alterations): 7.1–16.4 months
- Median PFS, PAM+ patients with confounding alterations (KRAS, EGFR, AKT2) (monotherapy, n = 7): 1.4 months
- Median PFS, PAM+ patients without confounding alterations (monotherapy, n = 47): 2.8 months
